Test results from PubChem BioAssay (NCI).
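Growth conditions: 96-well plates. Treatment: test compound, 48 hours, 5 concentrations. Analysis: linear interpolation between bracketing concentrations; unreached endpoints set to highest concentration. Here, GI50 denotes the concentration required for 50% inhibition of growth. TGI: concentration producing complete growth inhibition.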

How the values were obtained:
Assay in all cases: inhibition of tumour cell growth, NCI panel, 48 h
SNB-75 CNS = system: SNB-75 CNS
SF-539 CNS = system: SF-539 CNS
SF-268 CNS = system: SF-268 CNS
UO-31 renal = system: UO-31 renal
OVCAR-4 ovarian = system: OVCAR-4 ovarian
LOX IMVI melanoma = system: LOX IMVI melanoma
A549 NSCLC = system: A549 NSCLC
NCI/ADR-RES ovarian = system: NCI/ADR-RES ovarian
DU-145 prostate = system: DU-145 prostate
T-47D breast = system: T-47D breast

Structure (SMILES) | TGI (SNB-75 CNS) | TGI (SF-539 CNS) | TGI (SF-268 CNS) | TGI (UO-31 renal) | TGI (OVCAR-4 ovarian) | TGI (LOX IMVI melanoma) | TGI (A549 NSCLC) | GI50 (NCI/ADR-RES ovarian) | TGI (NCI/ADR-RES ovarian) | GI50 (DU-145 prostate) | TGI (DU-145 prostate) | GI50 (UO-31 renal) | GI50 (OVCAR-4 ovarian) | GI50 (A549 NSCLC) | GI50 (SNB-75 CNS) | GI50 (SF-539 CNS) | GI50 (T-47D breast) | TGI (T-47D breast) | GI50 (SF-268 CNS) | GI50 (LOX IMVI melanoma)
CCN(CC)c1ccc(N=Nc2ccc(-c3nc4ccc[n+](C)c4s3)cc2)cc1 | 27.5 µM | 23 µM | 48.9 µM | 46 µM | 20 µM | 15.8 µM | 26.3 µM | – | – | – | – | – | – | – | – | – | – | – | – | –
COc1cc(/C=C/c2cc(/C=C/c3ccc(O)c(OC)c3)n(C(=O)Nc3ccc(C)cc3C)n2)ccc1O | – | – | – | 1.74 µM | 2.99 µM | – | 3.2 µM | 0.335 µM | 2.66 µM | 0.387 µM | 1.5 µM | 0.362 µM | 0.464 µM | 0.43 µM | – | – | – | – | – | –
CC(C)(C)c1cc(C(O)(C(F)(F)F)C(F)(F)F)c2c(c1)C(C(F)(F)F)(C(F)(F)F)OC(C(C)(C)C)N2 (centres undefined) | 11.7 µM | 6.68 µM | – | 19.3 µM | 18 µM | – | 13.6 µM | – | – | – | – | – | – | – | – | – | – | – | – | –
COc1ccc(CCN2COc3c([C@@H](C)CCC=C(C)C)ccc(C)c3C2)cc1OC | 35.4 µM | 15.9 µM | 4.34 µM | 12.3 µM | 16 µM | 3.75 µM | 31.5 µM | 2.96 µM | 9.51 µM | – | – | 2.45 µM | 2.99 µM | 10.3 µM | 12.5 µM | 4.48 µM | 1.78 µM | 3.8 µM | 1.45 µM | 1.77 µM
CCOC(=O)NC(=O)c1cn(CCCOC(=O)CCCCCCCCCCC(=O)OCCCn2cc(C(=O)NC(=O)OCC)c(=O)[nH]c2=O)c(=O)[nH]c1=O | – | > 100 µM | > 100 µM | > 100 µM | > 100 µM | > 100 µM | > 100 µM | – | – | – | – | – | – | – | – | – | – | – | – | –
O=C1/C(=C/c2cccc([N+](=O)[O-])c2)COc2ccc(Br)cc21 | > 100 µM | > 100 µM | > 100 µM | > 100 µM | – | > 100 µM | > 100 µM | – | – | – | – | – | – | – | – | – | – | – | – | –
COc1cc(/C=C(\C#N)c2ccccc2)cc(OC)c1 | – | > 100 µM | > 100 µM | > 100 µM | > 100 µM | 65.4 µM | > 100 µM | – | – | – | – | – | – | – | – | – | – | – | – | –
Clc1ccc2c(c1)-c1c3c(nn1-c1ccccc1)-c1ccccc1SC3O2 (centres undefined) | > 100 µM | > 100 µM | > 100 µM | > 100 µM | – | > 100 µM | > 100 µM | – | – | – | – | – | – | – | – | – | – | – | – | –
C=CC/C=C/C/C=C/CCCCCCCc1cccc(O)c1C(=O)O | > 100 µM | > 100 µM | 80.8 µM | 79.1 µM | > 100 µM | > 100 µM | > 100 µM | – | – | – | – | – | – | – | – | – | – | – | – | –
CN(C)c1cc[c]([Sn]([c]2ccc(N(C)C)cc2)([c]2ccc(N(C)C)cc2)[c]2ccc(N(C)C)cc2)cc1 | 17.2 µM | 33.4 µM | 25.4 µM | 21.1 µM | 20.7 µM | – | 37.5 µM | – | – | – | – | 8.76 µM | 7.65 µM | 13.8 µM | 4.36 µM | 15.8 µM | – | – | 3.67 µM | 2.89 µM
Nc1ccc(-c2nc3ccc(Cc4ccc5nc(-c6ccc(N)cc6)[nH]c5c4)cc3[nH]2)cc1 | 28.9 µM | 3.91 µM | 26.9 µM | > 100 µM | – | 5.32 µM | 57.7 µM | > 100 µM | > 100 µM | 11.1 µM | 24.2 µM | 45.4 µM | – | 20.8 µM | 12.3 µM | 1.91 µM | – | – | 4.23 µM | 2.28 µM
N#CC1CC2(C1)OCCS2 (centres undefined) | > 100 µM | > 100 µM | > 100 µM | > 100 µM | > 100 µM | > 100 µM | > 100 µM | – | – | – | – | – | – | – | – | – | – | – | – | –
O=C1[C@@H]2C(c3ccccc3F)=NO[C@@H]2C(=O)N1c1ccc(Cc2ccc(N3C(=O)[C@H]4C(c5ccccc5F)=NO[C@H]4C3=O)cc2)cc1 | > 100 µM | > 100 µM | > 100 µM | > 100 µM | > 100 µM | > 100 µM | > 100 µM | – | – | – | – | – | – | – | – | – | – | – | – | –
NC(=O)NCc1c(C(N)=O)ncn1Cc1ccccc1 | > 100 µM | > 100 µM | – | – | > 100 µM | > 100 µM | > 100 µM | – | – | – | – | – | – | – | – | – | – | – | – | –
Cc1c(C(=O)/C=C/c2ccccc2)[n+](=O)c2ccccc2n1[O-] | 64.7 µM | 29.7 µM | 40.1 µM | 34.2 µM | 33 µM | 28.3 µM | 43.2 µM | – | – | – | – | – | – | – | – | – | – | – | – | –
O=C(c1ccccc1)C1OC12C(=O)Nc1ccccc12 (centres undefined) | 42.2 µM | 57.4 µM | > 100 µM | > 100 µM | > 100 µM | > 100 µM | > 100 µM | – | – | – | – | – | – | – | – | – | – | – | – | –
O=C(Nc1c(Cl)cc([N+](=O)[O-])cc1Cl)C(=O)C(C1OC(=O)c2ccccc21)[N+](=O)[O-] (centres undefined) | > 100 µM | > 100 µM | > 100 µM | > 100 µM | > 100 µM | > 100 µM | > 100 µM | – | – | – | – | – | – | – | – | – | – | – | – | –
C1CCC([PH+](C2CCCCC2)C2CCCCC2[PH+](C2CCCCC2)C2CCCCC2)CC1.O=C(C1[CH-]CCCC1)C1CCCC[N-]1.[Au] (centres undefined) | 1.05 µM | 1.28 µM | 1.91 µM | 2.76 µM | – | – | – | 1.8 µM | > 100 µM | 0.298 µM | 1.61 µM | 1.45 µM | – | – | 0.179 µM | 0.31 µM | – | – | 0.343 µM | –
ClCc1cccc(Cn2cnc3nc(Cl)nc(Cl)c32)c1 | 2.2 µM | 0.496 µM | 3.83 µM | 9.1 µM | 3.21 µM | – | 19.8 µM | – | – | 0.141 µM | 0.271 µM | 4.43 µM | 1.56 µM | 6.46 µM | 0.912 µM | 0.189 µM | – | – | 1.38 µM | –
O=C1CC2c3ccccc3CCC2c2ccccc21 (centres undefined) | > 100 µM | 53.3 µM | > 100 µM | 50.8 µM | – | 34.3 µM | > 100 µM | – | – | – | > 100 µM | – | – | – | – | – | – | > 100 µM | – | –
CC(=O)N[C@H]1CSSC[C@@H](C(N)=O)NC(=O)[C@H](C(C)C)NC(=O)[C@H](C)NC(=O)[C@H](Cc2cnc[nH]2)NC1=O | – | > 100 µM | > 100 µM | > 100 µM | > 100 µM | > 100 µM | > 100 µM | > 100 µM | > 100 µM | > 100 µM | > 100 µM | > 100 µM | > 100 µM | > 100 µM | – | > 100 µM | > 100 µM | > 100 µM | > 100 µM | > 100 µM
C[C@]12CC[C@@H]3c4cc(OCC(F)(F)F)c(O)cc4/C(=N/O)C[C@H]3[C@@H]1CC[C@@H]2O | – | 0.0725 µM | 21.7 µM | 20.8 µM | 39 µM | 14.8 µM | 35.6 µM | 0.0392 µM | 2.49 µM | 0.0673 µM | > 54 µM | 0.149 µM | – | – | – | – | – | – | – | 0.048 µM
